# Reference: US6407058B1, “Modifying the permeability of physiological barriers” (Eisai Co., Limited, priority 1996, dated 2002)
# How the values were obtained:
# [1] = tested on: p100/p120; assay: p100/p120 electrophoretic mobility, Caco-2 cells; type: cell-based; details: 200 nM PDB, 30 minutes
# Method: (§1) p100 and p120 electrophoretic mobility is affected by PDB in a number of different epithelial cell lines. LLC-PK1, (a porcine kidney cell line), MDCK strain II cells and gut-derived Caco-2 cells were treated with or without 200 nM PDB for 30 minutes, lysed into Laemmli sample buffer, separated by electrophoresis and analysed by immunoblotting.
# (§2) MDCK strain I and II cells were provided by Barry Gumbiner (memorial Sloan-Kettering Cancer Center, NY). LLC-PK1 and Caco-2 cells were obtained from the European Collection of Animal Cell Cultures. All cells were maintained at 37° C. under 5% CO2 in humidified air. MDCK strain I and II cells were maintained in MEM containing 10% FCS, 100 U/ml penicillin, 100 μg/ml streptomycin and 2 mM L-glutamine. Caco-2 cells were maintained in MEM containing 15% FCS, 1% non-essential amino acids and 1 μg/ml bovine insulin (Sigma I-6634). LLC-PK1 cells were grown in M199 (Gibco), 10% FCS, 100 U/ml penicillin, 100 μg/ml streptomycin and 2 mM L-glutamine. For whole cell lysate analysis, 10^5 cells were plated on 6.5 mm diameter, 0.4 μm, polycarbonate Transwell filters from Costar, in 0.25 ml of medium. The basolateral chamber contained 0.75 ml of medium. For immunoprecipitation, 5×10^5 cells were plated onto 24 mm Transwell filters, in 2 ml of medium, with 3 ml of medium in the lower chamber. Cells were used 4-7 days after plating. […]
# [2] = tested on: p100/p120; assay: immunofluorescence localisation of p100/p120, MDCK I cells; type: cell-based; details: PDB-treated vs control
# Source text: It has been shown that although some of the p100/p120 in cells is associated with adherens junctions, there is also a large pool that is not complexed with cadherins (at least by immunoprecipitation analysis). […] This procedure served to isolate only that portion of the cellular p100/p120 that associates with the cadherins. Following electrophoresis, and transfer to nitrocellulose, the p100 and p120 present in E-cadherin immunoprecipitates were detected by immunoblotting (Example 9A). […] In both cases, p100/p120 is shown to be present at regions of cell—cell contact.
# Cells were fixed at room temperature for 20 minutes in 3% paraformaldehyde made up in PBS containing 0.5 mM CaCl2 and 0.5 mM MgSO4. Fixed cells were washed and then permeabilized by incubation with 0.5% Triton X-100 in PBS for 10 minutes. After washing, the cells were incubated for 30 minutes in PBS containing 10% calf serum and 0.1 M lysine, pH 7.4. Incubation with p120 antibody (0.5 μg/ml) was in PBS containing 10% calf serum for 1 hour. After washing, the cells were then incubated for 60 minutes with a 1:100 dilution of FITC-conjugated anti-mouse IgG (Jackson Immunoresearch Labs), in PBS containing 10% calf serum. After washing, the filters were mounted with Citifluor (Citifluor Products, Canterbury, UK) and examined using a Nikon Microphot-FXA fluorescence microscope fitted with 40× and 60× objectives. […]
# [3] = tested on: p100/p120; assay: p100/p120 electrophoretic mobility, primary pig brain endothelial cells (PBECs); type: cell-based; details: PBECs, 200 nM PDB, 30 minutes
# Method: Cells were treated with or without 200 nM PDB for 30 minutes, lysed into Laemmli sample buffer, separated by electrophoresis and analysed by immunoblotting with antibodies recognising p100 and p120.
# MDCK strain I and II cells were provided by Barry Gumbiner (memorial Sloan-Kettering Cancer Center, NY). LLC-PK1 and Caco-2 cells were obtained from the European Collection of Animal Cell Cultures. All cells were maintained at 37° C. under 5% CO2 in humidified air. MDCK strain I and II cells were maintained in MEM containing 10% FCS, 100 U/ml penicillin, 100 μg/ml streptomycin and 2 mM L-glutamine. Caco-2 cells were maintained in MEM containing 15% FCS, 1% non-essential amino acids and 1 μg/ml bovine insulin (Sigma I-6634). LLC-PK1 cells were grown in M199 (Gibco), 10% FCS, 100 U/ml penicillin, 100 μg/ml streptomycin and 2 mM L-glutamine. For whole cell lysate analysis, 10^5 cells were plated on 6.5 mm diameter, 0.4 μm, polycarbonate Transwell filters from Costar, in 0.25 ml of medium. The basolateral chamber contained 0.75 ml of medium. For immunoprecipitation, 5×10^5 cells were plated onto 24 mm Transwell filters, in 2 ml of medium, with 3 ml of medium in the lower chamber. Cells were used 4-7 days after plating. Tissue culture materials were from Gibco. Porcine brain endothelial cells were isolated and grown by modifications of a previously published procedure (Rubin et al., 1991). Brain capillary fragments were plated on dishes coated with rat tail collagen and human fibronectin. The cultures were fed every other day with growth medium composed of 50% astrocyte-conditioned medium and 50% Dulbecco's Modified Eagle Medium containing 10% plasma-derived serum, 125 μg/ml heparin, antibiotics and glutamine. They were incubated in a humidified atmosphere of 10% CO2 at 37° C. When the endothelial cells were approximately 50% confluent (after 4-6 days in culture), they were trypsinized and plated onto collagen-coated polycarbonate Transwell filters (6.5 mm diameter, 0.4 μm pore size, tissue culture treated, Costar Corp, Cambridge, Mass., U.S.A.) in the same medium (250 μl apically, 750 μl basolaterally). After 2-3 days on filters, the medium was switched to a 1:1 mixture of astrocyte-conditioned medium and a Dulbecco's Modified Eagle Medium-based, chemically defined medium (‘N2’, Rubin et al., 1991; Bottenstein and Sato, 1979). The final concentration of plasma-derived serum was 5%. Human umbilical vein endothelial cells were from Clonetics.
# Whole cell lysates were prepared by rapidly replacing the culture medium in 6.5 mm with hot Laemmli sample buffer, followed by heating at 100° C. for 5 minutes. Immunoprecipitations were carried out at 4° C. Confluent monolayers of cells were washed rapidly with ice cold PBS (containing 0.9 mM CaCl2 and 0.5 mM MgCl2) before addition of 0.5 ml of the appropriate buffer. The filters were then gently scraped, and the lysate was removed and centrifuged at 14000× g. The supernatant was precleared with 10% (w/v) protein A-Sepharose in lysis buffer for 30-60 minutes. Appropriate primary antibodies were added to the lysate, and after 2-3 hours the immunecomplex was isolated, using rabbit anti-mouse secondary antibodies (Jackson Immunoresearch Labs Inc., West Grove, Pa.) and protein A-Sepharose.
# [4] = tested on: p100/p120; assay: p100/p120 electrophoretic mobility, LLC-PK1 cells; type: cell-based, porcine; details: 200 nM PDB, 30 minutes
# Method: as §1, §2
smiles,measurement,setting,value
"CCCC(=O)O[C@@H]1[C@@H](C)[C@@]2(O)[C@@H](C=C(CO)C[C@]3(O)C(=O)C(C)=C[C@@H]23)[C@@H]2C(C)(C)[C@]12OC(=O)CCC [PDB, Phorbol-12,13-dibutyrate]",migration of p100 and p120,[1],"less striking, but still present"
same,localisation of p100 and p120,[2],no change in the localisation
same,mobility of p100 and p120,[3],the mobility of p100 and p120 increased
same,migration of p100 and p120,[4],increased markedly
